Test results from ChEMBL document CHEMBL3108747, “Synthesis and evaluation of novel cyclic Peptide inhibitors of lysine-specific demethylase 1” (ACS Med Chem Lett, 2014).
pIC50: −log10 of the molar value.

What was measured:
cells = settings: Homo sapiens, Calu-6, 72 h
Description: Cytotoxicity against human Calu6 cells assessed as cell viability after 72 hrs by MTS assay

MCF7 = experiment: cells; settings: Homo sapiens, MCF7, 72 h
Description: Cytotoxicity against human MCF7 cells assessed as cell viability after 72 hrs by MTS assay

SMILES | pIC50 (cells) | pIC50 (MCF7)
CSCC[C@H](NC(=O)[C@@H](NC(=O)[C@H](CCCNC(=N)N)NC(=O)[C@H](C)N)[C@@H](C)O)C(=O)N[C@H]1CCCCNC(=O)CC[C@@H](C(=O)N[C@H](C(=O)NCC(=O)NCC(=O)N[C@@H](CCCCN)C(=O)N[C@@H](C)C(=O)N2CCC[C@H]2C(=O)N[C@@H](CCCNC(=N)N)C(=O)N[C@@H](CCCCN)C(=O)N[C@@H](CCC(N)=O)C(=O)N[C@@H](CC(C)C)C(=O)N[C@@H](C)C(N)=O)[C@@H](C)O)NC(=O)[C@H](CCCCN)NC(=O)[C@H](CCCNC(=N)N)NC(=O)[C@H](C)NC(=O)[C@H]([C@@H](C)O)NC1=O | 3.90 | 3.81
N=C(NCCCNCCCCCCCNCCCNC(=N)NC(=N)NCCC(c1ccccc1)c1ccccc1)NC(=N)NCCC(c1ccccc1)c1ccccc1 | 4.96 | 
